Test results reported in ChEMBL document CHEMBL1201862, “PubChem BioAssay data set” (2004).
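Compound exposure: 48 hours, 5 concentrations, 96-well plates. GI50 is the concentration that inhibits growth by half.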 Activity calls are given as the source filed them. Cut-off read from the data, not from the text of the source: active = GI50 up to about 1.1 µM and inactive = higher.

How the values were obtained:
Experiment in all cases: NCI anticancer screen, dose series, 48 h
CAKI-1 = test system: CAKI-1
DLD-1 = test system: DLD-1
DMS-114 = test system: DMS-114
DMS-273 = test system: DMS-273
IGROV-1 = test system: IGROV-1
KM-20L2 = test system: KM-20L2
LOX IMVI = test system: LOX IMVI
M19-MEL = test system: M19-MEL
MCF7 = test system: MCF7
NCI-H23 = test system: NCI-H23
NCI/ADR-RES = test system: NCI/ADR-RES
RXF 393 = test system: RXF 393
SNB-78 = test system: SNB-78
UACC-257 = test system: UACC-257
XF498 = test system: XF498
TK-10 = test system: TK-10
SR = test system: SR

Question: For `CN1CCN(P2(=S)Oc3ccc4ccccc4c3-c3c(ccc4ccccc34)O2)CC1`, which GI50 (CAKI-1) is on record?
Answer: The GI50 was 15.4 µM (inactive).

Question: And the GI50 (DLD-1)?
Answer: The GI50 was 34.6 µM (inactive).

Question: And the GI50 (DMS-114)?
Answer: Its GI50 is 29.6 µM (inactive).

Question: And the GI50 (DMS-273)?
Answer: Its GI50 is 22.4 µM (inactive).

Question: What about the GI50 (IGROV-1) of the same compound?
Answer: Its GI50 is 53.1 µM (inactive).

Question: And the GI50 (KM-20L2)?
Answer: Its GI50 is 22.8 µM (inactive).

Question: What about the GI50 (LOX IMVI) of the same compound?
Answer: Its GI50 is 18.9 µM (inactive).

Question: What about the GI50 (M19-MEL) of the same compound?
Answer: The GI50 was 30.3 µM (inactive).

Question: And the GI50 (MCF7)?
Answer: The GI50 was 13.6 µM (inactive).

Question: And the GI50 (NCI-H23)?
Answer: The GI50 was 37.5 µM (inactive).

Question: And the GI50 (NCI/ADR-RES)?
Answer: Its GI50 is 28.7 µM (inactive).

Question: And the GI50 (RXF 393)?
Answer: Its GI50 is 25.6 µM (inactive).

Question: And the GI50 (SNB-78)?
Answer: Its GI50 is 50.4 µM (inactive).

Question: And the GI50 (UACC-257)?
Answer: Its GI50 is 29.7 µM (inactive).

Question: And the GI50 (XF498)?
Answer: Its GI50 is 28.8 µM (inactive).

Question: For `CC(C)=CCC/C(C)=C/CCC1(C)C=Cc2c(c3ccccc3oc2=O)O1` (stereo not drawn), which GI50 (CAKI-1) is on record?
Answer: The GI50 was 17.2 µM (inactive).

Question: What about the GI50 (DLD-1) of the same compound?
Answer: Its GI50 is 14.7 µM (inactive).

Question: And the GI50 (DMS-114)?
Answer: Its GI50 is 15.8 µM (inactive).

Question: What about the GI50 (DMS-273) of the same compound?
Answer: The GI50 was 16.9 µM (inactive).

Question: What about the GI50 (IGROV-1) of the same compound?
Answer: The GI50 was 16.4 µM (inactive).

Question: And the GI50 (KM-20L2)?
Answer: Its GI50 is 19.4 µM (inactive).

Question: And the GI50 (LOX IMVI)?
Answer: The GI50 was 18 µM (inactive).

Question: What about the GI50 (M19-MEL) of the same compound?
Answer: The GI50 was 17.3 µM (inactive).

Question: What about the GI50 (MCF7) of the same compound?
Answer: The GI50 was 16.5 µM (inactive).

Question: And the GI50 (NCI-H23)?
Answer: Its GI50 is 14.8 µM (inactive).

Question: What about the GI50 (NCI/ADR-RES) of the same compound?
Answer: Its GI50 is 16.7 µM (inactive).

Question: What about the GI50 (RXF 393) of the same compound?
Answer: The GI50 was 3.71 µM (inactive).

Question: And the GI50 (SNB-78)?
Answer: The GI50 was > 56.2 µM (inactive).

Question: And the GI50 (UACC-257)?
Answer: The GI50 was 17.1 µM (inactive).

Question: And the GI50 (XF498)?
Answer: Its GI50 is 15.5 µM (inactive).

Question: For `Cc1cc(C)n(-c2c(O)ccc(O)c2-n2nc(C)cc2C)n1`, which GI50 (CAKI-1) is on record?
Answer: The GI50 was > 100 µM (inactive).

Question: And the GI50 (DLD-1)?
Answer: Its GI50 is > 100 µM (inactive).

Question: And the GI50 (DMS-114)?
Answer: Its GI50 is > 100 µM (inactive).

Question: And the GI50 (DMS-273)?
Answer: The GI50 was > 100 µM (inactive).

Question: What about the GI50 (IGROV-1) of the same compound?
Answer: The GI50 was > 100 µM (inactive).

Question: What about the GI50 (KM-20L2) of the same compound?
Answer: The GI50 was > 100 µM (inactive).

Question: What about the GI50 (LOX IMVI) of the same compound?
Answer: Its GI50 is > 100 µM (inactive).

Question: What about the GI50 (M19-MEL) of the same compound?
Answer: The GI50 was 71.6 µM (inactive).

Question: And the GI50 (NCI-H23)?
Answer: Its GI50 is > 100 µM (inactive).

Question: What about the GI50 (RXF 393) of the same compound?
Answer: The GI50 was > 100 µM (inactive).

Question: And the GI50 (SNB-78)?
Answer: Its GI50 is > 100 µM (inactive).

Question: What about the GI50 (TK-10) of the same compound?
Answer: Its GI50 is > 100 µM (inactive).

Question: And the GI50 (XF498)?
Answer: Its GI50 is > 100 µM (inactive).

Question: With `COC1=C2CC(C)CC(OC)C(O)C(C)/C=C(\C)C(OC(N)=O)C(OC)/C=C\C=C(/C)C(=O)NC(=C(/C=N/C(C)(C)C)C1=O)C2=O` (stereo not drawn) as the compound, how does the GI50 (CAKI-1) read?
Answer: The GI50 was 3.08 µM (inactive).

Question: What about the GI50 (DLD-1) of the same compound?
Answer: The GI50 was 6.05 µM (inactive).

Question: And the GI50 (DMS-114)?
Answer: The GI50 was 0.466 µM (active).

Question: What about the GI50 (DMS-273) of the same compound?
Answer: Its GI50 is 0.986 µM (active).

Question: And the GI50 (IGROV-1)?
Answer: The GI50 was 13.1 µM (inactive).

Question: What about the GI50 (KM-20L2) of the same compound?
Answer: Its GI50 is 2.28 µM (inactive).

Question: And the GI50 (LOX IMVI)?
Answer: Its GI50 is 4.41 µM (inactive).

Question: What about the GI50 (M19-MEL) of the same compound?
Answer: The GI50 was 4.45 µM (inactive).

Question: And the GI50 (MCF7)?
Answer: The GI50 was 2.89 µM (inactive).

Question: And the GI50 (NCI-H23)?
Answer: Its GI50 is 0.849 µM (active).

Question: And the GI50 (NCI/ADR-RES)?
Answer: The GI50 was 5.7 µM (inactive).

Question: What about the GI50 (RXF 393) of the same compound?
Answer: The GI50 was 0.351 µM (active).

Question: And the GI50 (SNB-78)?
Answer: Its GI50 is 13.9 µM (inactive).

Question: What about the GI50 (UACC-257) of the same compound?
Answer: Its GI50 is 2.55 µM (inactive).

Question: And the GI50 (XF498)?
Answer: The GI50 was 0.767 µM (active).

Question: What does the source list for `CCOC(=O)/C=C/c1c(C)[nH]c(=O)[nH]c1=O`?
Answer: GI50 (CAKI-1): 191 µM (inactive); GI50 (DLD-1): > 250 µM (inactive); GI50 (DMS-114): 120 µM (inactive); GI50 (DMS-273): > 176 µM (inactive); GI50 (IGROV-1): > 250 µM (inactive); GI50 (KM-20L2): > 250 µM (inactive); GI50 (LOX IMVI): > 250 µM (inactive); GI50 (M19-MEL): > 250 µM (inactive); GI50 (MCF7): 244 µM (inactive); GI50 (NCI-H23): > 250 µM (inactive); GI50 (NCI/ADR-RES): > 250 µM (inactive); GI50 (RXF 393): > 237 µM (inactive); GI50 (SNB-78): > 250 µM (inactive); GI50 (UACC-257): > 250 µM (inactive); GI50 (XF498): > 250 µM (inactive)

Question: `CC1(C)O[C@@H](C[C@]2(C#N)C[C@H](CCl)OC(C)(C)O2)C[C@@H](C#N)O1` was tested. Which GI50 (CAKI-1) did it give?
Answer: Its GI50 is > 100 µM (inactive).

Question: What about the GI50 (DLD-1) of the same compound?
Answer: The GI50 was > 100 µM (inactive).

Question: What about the GI50 (DMS-114) of the same compound?
Answer: The GI50 was > 100 µM (inactive).

Question: What about the GI50 (DMS-273) of the same compound?
Answer: Its GI50 is > 100 µM (inactive).

Question: What about the GI50 (IGROV-1) of the same compound?
Answer: Its GI50 is > 100 µM (inactive).

Question: What about the GI50 (KM-20L2) of the same compound?
Answer: Its GI50 is > 100 µM (inactive).

Question: What about the GI50 (LOX IMVI) of the same compound?
Answer: Its GI50 is > 100 µM (inactive).

Question: What about the GI50 (M19-MEL) of the same compound?
Answer: Its GI50 is > 100 µM (inactive).

Question: And the GI50 (NCI-H23)?
Answer: Its GI50 is > 100 µM (inactive).

Question: And the GI50 (RXF 393)?
Answer: Its GI50 is > 100 µM (inactive).

Question: And the GI50 (SNB-78)?
Answer: Its GI50 is > 100 µM (inactive).

Question: And the GI50 (SR)?
Answer: The GI50 was > 100 µM (inactive).

Question: And the GI50 (TK-10)?
Answer: The GI50 was > 100 µM (inactive).

Question: What about the GI50 (UACC-257) of the same compound?
Answer: The GI50 was > 100 µM (inactive).

Question: What about the GI50 (XF498) of the same compound?
Answer: The GI50 was 55.8 µM (inactive).

Question: What does the source list for `C=C1C[C@@H]2C[C@@H](C)CC(O)[C@]2(CCCN)C1O` (stereo partly drawn)?
Answer: GI50 (CAKI-1): > 100 µM (inactive); GI50 (DLD-1): > 100 µM (inactive); GI50 (DMS-114): > 100 µM (inactive); GI50 (DMS-273): > 100 µM (inactive); GI50 (IGROV-1): > 100 µM (inactive); GI50 (KM-20L2): > 100 µM (inactive); GI50 (LOX IMVI): > 100 µM (inactive); GI50 (M19-MEL): > 100 µM (inactive); GI50 (NCI-H23): > 100 µM (inactive); GI50 (RXF 393): > 100 µM (inactive); GI50 (SNB-78): > 100 µM (inactive); GI50 (SR): > 100 µM (inactive); GI50 (TK-10): > 100 µM (inactive); GI50 (UACC-257): > 100 µM (inactive); GI50 (XF498): > 100 µM (inactive)
